Measured values taken from PubChem BioAssay (NCI).
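Assay format: 96-well plates, 48-hour exposure. Definition used: TGI = concentration required for complete inhibition of growth.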

Experiments:
Test in all cases: NCI-60 cell line screen, 48 h
CCRF-CEM leukemia = test system: CCRF-CEM leukemia
SK-MEL-5 melanoma = test system: SK-MEL-5 melanoma
HOP-62 NSCLC = test system: HOP-62 NSCLC
M14 melanoma = test system: M14 melanoma
IGROV1 ovarian = test system: IGROV1 ovarian
KM12 colon = test system: KM12 colon
SF-539 CNS = test system: SF-539 CNS
HL-60(TB) leukemia = test system: HL-60(TB) leukemia
SNB-19 CNS = test system: SNB-19 CNS
OVCAR-3 ovarian = test system: OVCAR-3 ovarian
ACHN renal = test system: ACHN renal
SNB-75 CNS = test system: SNB-75 CNS
COLO 205 colon = test system: COLO 205 colon
OVCAR-8 ovarian = test system: OVCAR-8 ovarian
OVCAR-5 ovarian = test system: OVCAR-5 ovarian
M19-MEL melanoma = test system: M19-MEL melanoma
HCT-15 colon = test system: HCT-15 colon
NCI-H460 lung = test system: NCI-H460 lung
OVCAR-4 ovarian = test system: OVCAR-4 ovarian
DLD-1 colon = test system: DLD-1 colon
EKVX NSCLC = test system: EKVX NSCLC
NCI-H522 lung = test system: NCI-H522 lung
UACC-257 melanoma = test system: UACC-257 melanoma
U251 CNS = test system: U251 CNS
SF-295 CNS = test system: SF-295 CNS
LOX IMVI melanoma = test system: LOX IMVI melanoma
UO-31 renal = test system: UO-31 renal
SK-MEL-28 melanoma = test system: SK-MEL-28 melanoma
SR leukemia = test system: SR leukemia
XF 498 CNS = test system: XF 498 CNS
CAKI-1 renal = test system: CAKI-1 renal
786-0 renal = test system: 786-0 renal
HCC-2998 colon = test system: HCC-2998 colon
SF-268 CNS = test system: SF-268 CNS
A549 NSCLC = test system: A549 NSCLC
NCI-H23 lung = test system: NCI-H23 lung
SW-620 colon = test system: SW-620 colon
HOP-18 NSCLC = test system: HOP-18 NSCLC
DMS 114 small cell lung = test system: DMS 114 small cell lung
SNB-78 CNS = test system: SNB-78 CNS
UACC-62 melanoma = test system: UACC-62 melanoma
HT29 colon = test system: HT29 colon
MOLT-4 leukemia = test system: MOLT-4 leukemia
SN12C renal = test system: SN12C renal
MALME-3M melanoma = test system: MALME-3M melanoma
DMS 273 small cell lung = test system: DMS 273 small cell lung
SK-OV-3 ovarian = test system: SK-OV-3 ovarian
SK-MEL-2 melanoma = test system: SK-MEL-2 melanoma
KM20L2 colon = test system: KM20L2 colon
HOP-92 NSCLC = test system: HOP-92 NSCLC
K-562 leukemia = test system: K-562 leukemia
HCT-116 colon = test system: HCT-116 colon
A498 renal = test system: A498 renal
TK-10 renal = test system: TK-10 renal
LXFL 529 NSCLC = test system: LXFL 529 NSCLC
NCI-H226 lung = test system: NCI-H226 lung
RPMI-8226 leukemia = test system: RPMI-8226 leukemia
RXF 393 renal = test system: RXF 393 renal

## C#CCN(Cc1ccc2nc(-c3ccccc3)c(Cl)nc2c1)c1ccc(Cl)c(Cl)c1
CCRF-CEM leukemia
  TGI: > 100 µM
SK-MEL-5 melanoma
  TGI: > 100 µM
HOP-62 NSCLC
  TGI: > 100 µM
M14 melanoma
  TGI: > 100 µM
IGROV1 ovarian
  TGI: > 100 µM
KM12 colon
  TGI: > 100 µM
SF-539 CNS
  TGI: > 100 µM
HL-60(TB) leukemia
  TGI: > 100 µM
SNB-19 CNS
  TGI: > 100 µM
OVCAR-3 ovarian
  TGI: > 100 µM
ACHN renal
  TGI: > 100 µM
SNB-75 CNS
  TGI: > 100 µM
COLO 205 colon
  TGI: > 100 µM
OVCAR-8 ovarian
  TGI: > 100 µM
OVCAR-5 ovarian
  TGI: > 100 µM
M19-MEL melanoma
  TGI: > 100 µM
HCT-15 colon
  TGI: > 100 µM
NCI-H460 lung
  TGI: > 100 µM
OVCAR-4 ovarian
  TGI: > 100 µM
DLD-1 colon
  TGI: > 100 µM
EKVX NSCLC
  TGI: > 100 µM
NCI-H522 lung
  TGI: > 100 µM
UACC-257 melanoma
  TGI: > 100 µM
U251 CNS
  TGI: > 100 µM
SF-295 CNS
  TGI: > 100 µM
LOX IMVI melanoma
  TGI: > 100 µM
UO-31 renal
  TGI: > 100 µM
SK-MEL-28 melanoma
  TGI: > 100 µM
SR leukemia
  TGI: > 100 µM
XF 498 CNS
  TGI: > 100 µM
CAKI-1 renal
  TGI: > 100 µM
786-0 renal
  TGI: > 100 µM
HCC-2998 colon
  TGI: 96.8 µM
SF-268 CNS
  TGI: > 100 µM
A549 NSCLC
  TGI: > 100 µM
NCI-H23 lung
  TGI: > 100 µM
SW-620 colon
  TGI: > 100 µM
HOP-18 NSCLC
  TGI: > 100 µM
DMS 114 small cell lung
  TGI: > 100 µM
SNB-78 CNS
  TGI: > 100 µM
UACC-62 melanoma
  TGI: > 100 µM
HT29 colon
  TGI: > 100 µM
MOLT-4 leukemia
  TGI: > 100 µM
SN12C renal
  TGI: > 100 µM
MALME-3M melanoma
  TGI: > 100 µM
DMS 273 small cell lung
  TGI: > 100 µM
SK-OV-3 ovarian
  TGI: > 100 µM
SK-MEL-2 melanoma
  TGI: > 100 µM
KM20L2 colon
  TGI: > 100 µM
HOP-92 NSCLC
  TGI: > 100 µM
K-562 leukemia
  TGI: > 100 µM
HCT-116 colon
  TGI: > 100 µM
A498 renal
  TGI: > 100 µM
TK-10 renal
  TGI: > 100 µM
LXFL 529 NSCLC
  TGI: > 100 µM

## Nc1ccc2ncc(NCc3ccc(F)cc3)nc2c1
CCRF-CEM leukemia
  TGI: > 100 µM
SK-MEL-5 melanoma
  TGI: > 100 µM
NCI-H226 lung
  TGI: > 100 µM
HOP-62 NSCLC
  TGI: > 100 µM
M14 melanoma
  TGI: > 100 µM
KM12 colon
  TGI: > 100 µM
SF-539 CNS
  TGI: > 100 µM
HL-60(TB) leukemia
  TGI: > 100 µM
SNB-19 CNS
  TGI: > 100 µM
OVCAR-3 ovarian
  TGI: > 100 µM
ACHN renal
  TGI: > 100 µM
SNB-75 CNS
  TGI: > 100 µM
COLO 205 colon
  TGI: > 100 µM
OVCAR-8 ovarian
  TGI: > 100 µM
OVCAR-5 ovarian
  TGI: > 100 µM
M19-MEL melanoma
  TGI: > 100 µM
HCT-15 colon
  TGI: > 100 µM
NCI-H460 lung
  TGI: > 100 µM
OVCAR-4 ovarian
  TGI: > 100 µM
DLD-1 colon
  TGI: > 100 µM
EKVX NSCLC
  TGI: > 100 µM
NCI-H522 lung
  TGI: > 100 µM
UACC-257 melanoma
  TGI: > 100 µM
U251 CNS
  TGI: > 100 µM
SF-295 CNS
  TGI: > 100 µM
LOX IMVI melanoma
  TGI: > 100 µM
UO-31 renal
  TGI: > 100 µM
SK-MEL-28 melanoma
  TGI: > 100 µM
SR leukemia
  TGI: > 100 µM
XF 498 CNS
  TGI: 86.1 µM
CAKI-1 renal
  TGI: > 100 µM
786-0 renal
  TGI: > 100 µM
HCC-2998 colon
  TGI: > 100 µM
SF-268 CNS
  TGI: > 100 µM
RPMI-8226 leukemia
  TGI: > 100 µM
A549 NSCLC
  TGI: > 100 µM
NCI-H23 lung
  TGI: > 100 µM
SW-620 colon
  TGI: > 100 µM
HOP-18 NSCLC
  TGI: > 100 µM
DMS 114 small cell lung
  TGI: > 100 µM
SNB-78 CNS
  TGI: > 100 µM
UACC-62 melanoma
  TGI: > 100 µM
HT29 colon
  TGI: > 100 µM
MOLT-4 leukemia
  TGI: > 100 µM
SN12C renal
  TGI: > 100 µM
MALME-3M melanoma
  TGI: > 100 µM
DMS 273 small cell lung
  TGI: > 100 µM
SK-OV-3 ovarian
  TGI: > 100 µM
SK-MEL-2 melanoma
  TGI: > 100 µM
KM20L2 colon
  TGI: > 100 µM
HOP-92 NSCLC
  TGI: > 100 µM
K-562 leukemia
  TGI: > 100 µM
HCT-116 colon
  TGI: > 100 µM
RXF 393 renal
  TGI: > 100 µM
TK-10 renal
  TGI: > 100 µM
LXFL 529 NSCLC
  TGI: > 100 µM
